Experimental data from patent publication US20050009060A1, “Multiplexed multitarget screening method” (priority 2003, published 2005).

Biological target: 5HT2A receptor (Homo sapiens, UniProt P28223)
Assay: Ca2+i mobilization by autosampling flow cytometry, single cell threshold analysis, Indo-1-loaded cells
Assay type: cell-based
Settings: 1 uM serotonin; percent of cells with Ca2+i at least 2 SD above mean of buffer control
Excerpt: Left panel: distribution of Ca^2+i levels measured by intensity ratio, and determination of threshold level as shown by arrow.
A rotated histogram plot of such a response, and of the basal population, is shown in the left panel of FIG. 22, where the Ca^2+i level is shown on the x-axis and the number of cells attaining each Ca^2+i level is on the y-axis. […] The threshold is set by calculating the mean of the Ca^2+i level in the buffer control sample and calculating one (1) or more standard deviations above the mean. The choice to use one or more standard deviations is based on minimizing the error between buffer control samples and fully activated positive control samples. […] A threshold level at two standard deviations above the mean Ca^2+i level is shown by the arrow. Because the single cell flow cytometry as provided herein can analyze samples rapidly, about 100 to 200 cells, or more, can be analyzed in a short period. […] Data analysis is implemented in an automated software algorithm that automatically calculates Chi Square values along with the response frequency for each sample.

Sequence of 5HT2A receptor (P28223 whole entry): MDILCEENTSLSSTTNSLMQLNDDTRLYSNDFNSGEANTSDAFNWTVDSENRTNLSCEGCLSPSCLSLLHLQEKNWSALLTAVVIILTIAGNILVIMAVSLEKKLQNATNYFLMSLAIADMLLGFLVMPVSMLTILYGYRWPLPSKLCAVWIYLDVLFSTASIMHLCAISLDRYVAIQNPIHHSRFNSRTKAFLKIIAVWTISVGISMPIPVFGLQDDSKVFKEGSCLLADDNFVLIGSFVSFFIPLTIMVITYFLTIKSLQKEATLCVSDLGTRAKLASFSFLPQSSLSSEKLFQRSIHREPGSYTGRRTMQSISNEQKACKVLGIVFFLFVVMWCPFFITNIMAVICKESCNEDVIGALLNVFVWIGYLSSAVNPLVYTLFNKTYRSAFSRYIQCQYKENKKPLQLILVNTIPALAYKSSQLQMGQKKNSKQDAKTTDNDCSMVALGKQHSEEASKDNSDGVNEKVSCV

SMILES: NCCc1c[nH]c2ccc(O)cc12 [serotonin]
- signal to baseline ratio (stimulated to unstimulated response frequency): over 50
